Experimental data published in patent publication US11147219B2, “Methods and systems for growing plants using silicate-based substrates, cultivation of enhanced photosynthetic productivity and photosafening by utilization of exogenous glycopyranosides for endogenous glycopyranosyl-protein derivatives, and formulations, process and systems for the same” (Innovation Hammer, LLC, priority 2011, dated 2021).

Columns and labels:
corn = assay: Corn cultured in 700 μm silicate beads, root treatment; assay type: in vivo; conditions: 1 mM IG
Description: Individual plants were started from seeds, bulbs, or vegetative clones, inserted into containers of pre-moistened microbeads. Seedlings included ryegrass and corn; bulbs were of Crocus and paperwhite narcissus; and vegetative cuttings were from Coleus. Seeds generally germinated and were selected according to day of emergence of first roots as control and treatment sets. Roots were treated thereafter.
(§1) Plants were cultivated under controlled environmental conditions as follow: GE Ecolux® plant and aquarium F40T12 fluorescent illumination, photosynthetically active radiation (PAR) of 100 μEin·m^−2·s^−1, diel cycle of 16:8 h light:dark, 28:26° C., 10% to 20% relative humidity. Indoxyl glycopyranoside (IG) was formulated in water and applied and controls were given equal volumes of water without IG. […] Clear plastic 500 cc containers, perforated for drainage, were filled to a depth of 10 cm with up to 900 grams of microbeads each. Initially, basal plates of bulbs were immersed 1 cm into moistened 700 μm nmd silicate beads to initiate rooting. Within a week, first roots emerged and each bulb was treated with 0.1 ml of aqueous 10 mM IG. Controls were treated with addition of 0.1 ml water to their media. After 8 h uptake of the treatments, fertigation resumed in a manner consistent with pH-control. In another case, 0.3 mM 4-amino-phenyl-α-D-mannopyranoside (APM) was dissolved in water with 3 ppm Mn as EDTA, 6 ppm Ca as EDTA. A solution of the formulation was applied to rooted Crocus. APM-treated plants were compared to plants given identical control formulation without APM. Within five hours of treatment and, through fertigation, thereafter, all container cultures were regularly given equal volumes of nutribead solution. Controls were placed side-by-side and cultivated, likewise.
For all experiments, at 7 d to 14 d after treatment, microbeads were saturated with water. Immediately, individual plants gently were pulled and lifted out of the water-saturated silicate microbeads by hand. […] For paperwhites, volumes of entire roots were measured by displacement of water in glass beakers. […]

paperwhite narcissus = assay: Paperwhite narcissus bulbs cultured in 700 μm silicate beads, root treatment; assay type: in vivo; conditions: 16 days after treatment; n=6; p=0.01; controls 30 cc
Description: as §1, with “Within five hours of treatment and, through fertigation, thereafter, all container cultures were regularly given equal volumes of nutribead solution. Controls were placed side-by-side and cultivated, likewise.” left out
[…] For paperwhites, volumes of entire roots were measured by displacement of water in glass beakers. […]

Substance: Indoxyl glycopyranoside [IG]
- taproot total length (corn; after a week, control 5 cm): 7 cm
- dry weight of entire plant (corn; control plant 0.2 g): 0.3 g
- dry weight of separated roots (corn; control roots 0.03 g): 0.04 g
- mean root volume (paperwhite narcissus): 37 cc per plant
